Data published in patent US20160310389A1, “Low Viscosity Hair Care Composition” (The Procter & Gamble Company, priority 2015, published 2016).
Structures can show the parent of a compound that is named as a salt.

Key:
Format in all cases: physicochemical
[1] = Kinematic viscosity of surfactant base formulation with added agent (calibrated Cannon viscometers); conditions: for Kinematic viscosity at 40 C., 2% oil: 2% agent in base formulation; for Kinematic viscosity at 40 C., 4% oil: 4% agent in base formulation; for Lowest viscosity achieved: kinematic viscosity at 40° C., lowest over 2%, 4%, 6%, 8% agent in base formulation (24% sodium undecyl sulfate, 6% lauramidopropyl betaine, 1.6% perfume); for Kinematic viscosity at 40 C., 6% oil: 6% agent in base formulation; for Kinematic viscosity at 40 C., 8% oil: 8% agent in base formulation
Text: Referring to Tables 1 and 2, the base formulations were made by mixing 1.6% perfume, 24% sodium undecyl sulfate (CAS#1072-24-8) active, 6% lauramidopropyl betaine (CAS#4292-10-8) active and 60.4% deionized water which leaves 8% unfilled for the addition of a viscosity reducing agent (the balance being filled in by distilled water). For all compositions, the surfactant, water and additives including viscosity reducing agents were expected to be in a single phase.
The agents from Tables 1 and 2 were added to the base formulation at a percentage of 2%, 4%, 6%, and 8% into the above surfactant solution. The subsequent formulations were vortexed and put into oven at 60° C. overnight to form homogeneous solution. The viscosities of the formulations were measured with calibrated viscometers (Size 200/350/450) from Cannon Instrument Company (2139 High Tech Road, State College, Pa., USA, 16803).
After the equilibration, the formulations were drawn to reach the starting mark with a rubber suction bulb and the flow time between the starting mark and end mark was recorded for calculation. Each formulation was measured three times to calculate average and standard deviation. Between samples, viscometer was cleaned with water and acetone to rinse off residual.
Viscosity values were calculated based on the equation:
Viscosity (mm^2/s (cSt))=Time (s)*Constant (mm^2/s^2·(cSt/s))
The time in the above equation is the flow time recorded in the experiment and the constant numbers for each calibrated viscometer were obtained from the manuals.

[2] = SAXS correlation length of the micelles; conditions: for Change in correlation length compared to control: control 51 A
Text: Now referring to Table 4, SAXS (Small angle x-ray scattering) was used to characterize the structure of the surfactant aggregates. For these set of samples, the broad peak represents the correlation length (CL) of the micelles and was used to differentiate between the different formulations.
SAXS data was collected with a Bruker NanoSTAR (Bruker AXS Inc., Madison, Wis., U.S.A.) using the micro-focus, Cu x-ray tube, operating at 45 kV, 0.650 mA. The sample to detector distance was 112.050 cm and the detector was Vantec2K 2-dimensional area detector. Samples were placed in 2 mm quartz capillaries, sealed with expoxy resin to prevent evaporation. The sealant is permitted to cure for 2 hours at RT (room temperature) prior to loading into the SAXS sample chamber for data acquisition under vacuum with a data collection time of 1200 s. The data acquisition angular range is 0.3° to 3.0° […], to observe the presence and location of any intensity bands in the x-ray scattering pattern.
Each raw 2-D SAXS data is integrated azimuthally and plotted versus the scattering vector (q), which is expressed as a […] in units of angstroms (1/Å). • The values for q are calculated by the SAXS instrument according to the following equation: […]
Where: 2θ is the scattering angle; and λ is the wavelength used. For each formulation analyzed, the location of each intensity peak on the plot of (Intensity) I vs q is identified and recorded.

[3] = NMR self-diffusion coefficients and specific diffusivity ratio; conditions: for Specific diffusivity ratio measured at 4%: diffusion coefficient of the viscosity reducing agent/diffusion coefficient of the surfactant, 4% additive; for Diffusion Coefficient (m^2/s) surfactant at 4% additive: surfactant self-diffusion
Experimental: Now referring to Table 5, the specified viscosity reducing agents were added to the formula at a level of 4% in absence of other viscosity reducing agents. Diffusion coefficients were determined using a vendor-supplied pulse sequence (“ledbpgq2s”, stimulated echo with bipolar gradients and convection compensation) using a Bruker Avance 700 MHz NMR spectrometer equipped with a Diff-30 high gradient diffusion probe. Gradient pulse durations ranged between 1700-2700 us, with diffusion periods ranging from 50-100 ms. 32 linearly-spaced gradient values were used ranging from 2%-95% of 40 A current, with resulting gradient strengths given by 30 Gauss/cm/A. Data were processed using software written in-house. It is often necessary to fit more than one diffusion coefficient to individual signals. Average diffusion coefficients are reported in these cases. Averages were calculated by averaging the reciprocals of the diffusion coefficients and then taking the reciprocal of that average.
The specific diffusivity ratio is calculated as the ratio of the diffusion coefficient of the viscosity reducing agent/diffusion coefficient of the surfactant.
Two mechanisms of viscosity reduction are hypothesized based on self-diffusion coefficients. This leads to a simple diagnostic measurement to classify perfumes by their mechanism of viscosity reduction. That diagnostic is the ratio of the perfume self-diffusion coefficient to the surfactant self-diffusion coefficient (specific diffusivity ratio). In mechanism 1, the surfactant diffusion coefficient is not reduced, and may be increased, while the perfume diffusion coefficient is faster still. In mechanism 2, the surfactant and perfume diffusion coefficient are reduced to relatively small, nearly equal values. For mechanism 1, the viscosity reducing agent diffuses faster than the surfactant (specific diffusivity ratio>1), whereas for mechanism 2, the viscosity reducing agent diffuses slower than the surfactant (specific diffusivity ratio<1).

## CC(C)CCOC(=O)c1ccccc1O [Isoamyl Salicylate]
[1]
  Kinematic viscosity at 40 C., 2% oil: 460.3 cSt
  Kinematic viscosity at 40 C., 4% oil: 193.2 cSt
  Lowest viscosity achieved: 193 cSt

## OCC(O)CO [Glycerin]
[2]; 2% oil
  Correlation length peak [A]: 51 A
  Change in correlation length compared to control: 0.0%
[2]; 4% oil
  Correlation length peak [A]: 51 A
  Change in correlation length compared to control: 0.0%

## COc1ccc(C=O)cc1 [Anisic aldehyde]
[2]; 2% oil
  Correlation length peak [A]: 51 A
  Change in correlation length compared to control: 0.0%
[2]; 4% oil
  Correlation length peak [A]: 51 A
  Change in correlation length compared to control: 0.0%
[3]
  Specific diffusivity ratio measured at 4%: 3.3012
  Diffusion Coefficient (m^2/s) surfactant at 4% additive: 1.8945E−11 m^2/s

## CCCCCC1(C)CCC(C)(C)C1=O (stereo not drawn) [Veloutone]
[1]
  Kinematic viscosity at 40 C., 2% oil: 260.2 cSt
  Kinematic viscosity at 40 C., 4% oil: 129.1 cSt
  Kinematic viscosity at 40 C., 6% oil: 56.3 cSt
  Kinematic viscosity at 40 C., 8% oil: 47.3 cSt
  Lowest viscosity achieved: 47 cSt
[2]; 2% oil
  Correlation length peak [A]: 55 A
  Change in correlation length compared to control: 7.8%
[2]; 4% oil
  Correlation length peak [A]: 59 A
  Change in correlation length compared to control: 15.7%
[3]
  Specific diffusivity ratio measured at 4%: 0.965
  Diffusion Coefficient (m^2/s) surfactant at 4% additive: 2.3854E−12 m^2/s

## CC1=CC=C(C(C)C)CC1 [alpha-Terpinene]
[1]
  Kinematic viscosity at 40 C., 2% oil: 324.4 cSt
  Kinematic viscosity at 40 C., 4% oil: 96.0 cSt
  Kinematic viscosity at 40 C., 6% oil: 41.5 cSt
  Kinematic viscosity at 40 C., 8% oil: 46.7 cSt
  Lowest viscosity achieved: 42 cSt

## CCCCCCCCCCCCCC(=O)OC(C)C [Iso Propyl Myristate]
[1]
  Kinematic viscosity at 40 C., 2% oil: 234.2 cSt
  Kinematic viscosity at 40 C., 4% oil: 53.7 cSt
  Kinematic viscosity at 40 C., 6% oil: 30.4 cSt
  Kinematic viscosity at 40 C., 8% oil: 45.0 cSt
  Lowest viscosity achieved: 30 cSt
[3]
  Specific diffusivity ratio measured at 4%: 0.6401
  Diffusion Coefficient (m^2/s) surfactant at 4% additive: 2.1874E−12 m^2/s

## CC(C)COC(=O)c1ccccc1O [Iso Butyl Salicylate]
[1]
  Kinematic viscosity at 40 C., 2% oil: 408.7 cSt
  Lowest viscosity achieved: 409 cSt

## CCCCCCC1C(=O)CCC1C(=O)OC (stereo not drawn) [Dihyro Iso Jasmonate]
[1]
  Kinematic viscosity at 40 C., 2% oil: 334.9 cSt
  Kinematic viscosity at 40 C., 4% oil: 119.1 cSt
  Lowest viscosity achieved: 119 cSt

## C=CC(C)(CCC=C(C)C)OC(=O)C(C)C (stereo not drawn) [Linalyl Iso Butyrate]
[1]
  Kinematic viscosity at 40 C., 2% oil: 223.4 cSt
  Kinematic viscosity at 40 C., 4% oil: 73.0 cSt
  Kinematic viscosity at 40 C., 6% oil: 37.7 cSt
  Kinematic viscosity at 40 C., 8% oil: 39.9 cSt
  Lowest viscosity achieved: 38 cSt
[2]; 2% oil
  Correlation length peak [A]: 56 A
  Change in correlation length compared to control: 9.8%
[2]; 4% oil
  Correlation length peak [A]: 61 A
  Change in correlation length compared to control: 19.6%
[3]
  Specific diffusivity ratio measured at 4%: 0.7224
  Diffusion Coefficient (m^2/s) surfactant at 4% additive: 2.5217E−12 m^2/s

## CCCCCC(=O)OCC(C)C [Isobutyl Hexanoate]
[1]
  Kinematic viscosity at 40 C., 2% oil: 390.0 cSt
  Kinematic viscosity at 40 C., 4% oil: 177.9 cSt
  Kinematic viscosity at 40 C., 6% oil: 140.9 cSt
  Kinematic viscosity at 40 C., 8% oil: 109.4 cSt
  Lowest viscosity achieved: 109 cSt

## CCOC(=O)CC(O)(CC(=O)OCC)C(=O)OCC [Triethyl Citrate]
[1]
  Kinematic viscosity at 40 C., 2% oil: 269.4 cSt
  Kinematic viscosity at 40 C., 4% oil: 136.6 cSt
  Kinematic viscosity at 40 C., 6% oil: 66.6 cSt
  Kinematic viscosity at 40 C., 8% oil: 40.5 cSt
  Lowest viscosity achieved: 41 cSt
[2]; 2% oil
  Correlation length peak [A]: 50 A
  Change in correlation length compared to control: −2.0%
[2]; 4% oil
  Correlation length peak [A]: 49 A
  Change in correlation length compared to control: −3.9%
[3]
  Specific diffusivity ratio measured at 4%: 3.9850
  Diffusion Coefficient (m^2/s) surfactant at 4% additive: 1.0196E−11 m^2/s

## CCCCCCCC(OC)OC [1,1-Dimethoxyoctane]
[1]
  Kinematic viscosity at 40 C., 2% oil: 500.7 cSt
  Kinematic viscosity at 40 C., 4% oil: 308.1 cSt
  Lowest viscosity achieved: 308 cSt

## CC(=O)OCCC(C)CCCC(C)C (stereo not drawn) [3,7-Dimethyloctyl Acetate]
[1]
  Kinematic viscosity at 40 C., 2% oil: 445.7 cSt
  Lowest viscosity achieved: 446 cSt

## CCC(=O)O[C@@H]1C[C@H]2CC[C@]1(C)C2(C)C (racemic) [Iso Bornyl Propionate]
[1]
  Kinematic viscosity at 40 C., 2% oil: 463.1 cSt
  Lowest viscosity achieved: 463 cSt

## CC(C)CC=C(C=O)C(C)C [2-Isopropyl-5-methyl-2-hexenal]
[1]
  Kinematic viscosity at 40 C., 2% oil: 332.3 cSt
  Lowest viscosity achieved: 332 cSt

## CC12CCC(CC1=O)C2(C)C (stereo not drawn) [Camphor Gum]
[1]
  Kinematic viscosity at 40 C., 2% oil: 365.8 cSt
  Kinematic viscosity at 40 C., 4% oil: 127.2 cSt
  Lowest viscosity achieved: 127 cSt

## CC(=O)OCCC(C)CCC=C(C)C (stereo not drawn) [Citronellyl Acetate]
[1]
  Kinematic viscosity at 40 C., 2% oil: 362.7 cSt
  Lowest viscosity achieved: 363 cSt

## CCO [Ethanol]
[1]
  Kinematic viscosity at 40 C., 2% oil: 205.6 cSt
  Kinematic viscosity at 40 C., 4% oil: 111.0 cSt
  Kinematic viscosity at 40 C., 6% oil: 50.8 cSt
  Kinematic viscosity at 40 C., 8% oil: 29.2 cSt
  Lowest viscosity achieved: 29 cSt
[2]; 2% oil
  Correlation length peak [A]: 51 A
  Change in correlation length compared to control: 0.0%
[2]; 4% oil
  Correlation length peak [A]: 49 A
  Change in correlation length compared to control: −3.9%

## CCC(CC(C)CC)=NO (stereo not drawn) [5-Methyl-3-Heptanone Oxime]
[1]
  Kinematic viscosity at 40 C., 2% oil: 246.3 cSt
  Lowest viscosity achieved: 246 cSt

## COC(C)(C)C1CC=C(C)CC1 (stereo not drawn) [Orange Flower Ether]
[1]
  Kinematic viscosity at 40 C., 2% oil: 552.2 cSt
  Kinematic viscosity at 40 C., 4% oil: 418.8 cSt
  Lowest viscosity achieved: 419 cSt

## CCC(=O)OC1CC2CC1C1CC=CC21 (stereo not drawn) [Cyclaprop]
[1]
  Kinematic viscosity at 40 C., 2% oil: 404.2 cSt
  Lowest viscosity achieved: 404 cSt

## C=C(C)[C@H]1CC=C(C)CC1 [Dipentene]
[1]
  Kinematic viscosity at 40 C., 2% oil: 307.6 cSt
  Kinematic viscosity at 40 C., 4% oil: 74.5 cSt
  Kinematic viscosity at 40 C., 6% oil: 35.1 cSt
  Kinematic viscosity at 40 C., 8% oil: 42.6 cSt
  Lowest viscosity achieved: 35 cSt

## CC1=CCC(C(C)C)=CC1 [gamma-Terpinene]
[1]
  Kinematic viscosity at 40 C., 2% oil: 238.0 cSt
  Kinematic viscosity at 40 C., 4% oil: 65.0 cSt
  Kinematic viscosity at 40 C., 6% oil: 31.7 cSt
  Lowest viscosity achieved: 32 cSt

## CC(C)=CCC/C(C)=C/COC(=O)Cc1ccccc1 [Geranyl Phenyl Acetate]
[1]
  Kinematic viscosity at 40 C., 2% oil: 224.0 cSt
  Kinematic viscosity at 40 C., 4% oil: 76.0 cSt
  Kinematic viscosity at 40 C., 6% oil: 34.3 cSt
  Kinematic viscosity at 40 C., 8% oil: 36.6 cSt
  Lowest viscosity achieved: 34 cSt
[2]; 2% oil
  Correlation length peak [A]: 55 A
  Change in correlation length compared to control: 7.8%
[2]; 4% oil
  Correlation length peak [A]: 60 A
  Change in correlation length compared to control: 17.6%
[3]
  Specific diffusivity ratio measured at 4%: 0.8119
  Diffusion Coefficient (m^2/s) surfactant at 4% additive: 3.6554E−12 m^2/s

## CCCCOC(=O)c1ccccc1O [Butyl Salicylate]
[1]
  Kinematic viscosity at 40 C., 2% oil: 367.9 cSt
  Lowest viscosity achieved: 368 cSt
